According to patent US20080167272A1, “Thalidomide metabolites and methods of use” (Auckland Uniservices Limited, priority 2005, published 2008):

How the values were obtained:
TNF [1] = assay: Modulation of TNF production in Colon 38 tumour-bearing mice (serum and tumour, ELISA); assay type: in vivo; conditions: 3 h
Description: Mice with Colon 38 tumours, approximately 5-7 mm in diameter, were divided into groups of 5. One group was untreated. Other groups were treated with DMXAA (25 mg/kg) alone; DMXAA (25 mg/kg)+thalidomide (100 mg/kg), DMXAA (25 mg/kg)+PG (100 mg/kg), DMXAA (25 mg/kg)+PiG (100 mg/kg), DMXAA (25 mg/kg)+CG (100 mg/kg), DMXAA (25 mg/kg)+thalidomide (20 mg/kg), DMXAA (25 mg/kg)+CG (20 mg/kg), and thalidomide, PG, PiG or CG only at 100 and 200 mg/kg. Three hours after treatment, mice were anaesthetized with halothane (NZ Pharmacology Ltd., Christchurch, New Zealand), and blood was collected from the ocular sinus and tumours were excised. Blood was coagulated overnight at 4° C., and then centrifuged for 30 min at 2,000×g and 4° C., and the serum was removed and stored at −80° C. until use. Tumour tissues were weighed and homogenized in 1.5 ml α-minimal essential medium (Gibco, Grand Island, N.Y., USA). The homogenates were centrifuged (2,000×g, 30 min, 4° C.) and supernatant was removed and re-centrifuged (14,000×g, 30 min, 4° C.). The final supernatants were removed and kept at −80° C. until use. TNF levels in serum and supernatants derived from tumour homogenates were assayed for TNF as described in section 4 (below).
(§1) TNF was assayed using a commercially available ELISA kit (OpEIA human or murine TNF kit, PharMingen, San Diego, Calif., USA), according to the manufacturer's instructions. Briefly, samples (100 μl/well) in duplicate together with a serial dilution of TNF (31.25-2000 pg/ml) for the standard curve, were added to flat-bottom 96-well plates pre-coated with immobilised monoclonal anti-TNF antibody and incubated at room temperature for 2 h. The wells were then washed, biotinylated polyclonal antibody to TNF was added, followed by peroxidase-labelled streptavidin, and incubated at room temperature for 1 h. The wells were washed again, and the substrate, tetramethylbenzidine and hydrogen peroxide was added and after 10 min the reaction was stopped with 2 N sulphuric acid. The absorbance at 450 nm was determined using a microtitre plate reader.

TNF [2] = assay: LPS-induced TNF production by HPBL in culture; assay type: cell-based, human; conditions: HPBL, LPS 100 pg/ml, 12 h; all concentrations tested (PG, PiG: 1, 5, 25 μg/ml); FIG. 5
Description: Blood (20 ml) each from seven healthy volunteers was collected into heparinized tubes, and was overlayed on top of 10 ml of Ficoll-Paque Plus (Amersham Biosciences AB, Uppsala, Sweden) in 50 ml Falcon polypropylene conical tubes (Becton Dickson Labware, Franklin Lakes, N.J.). The tubes were centrifuged for 30 min at 300×g and 4° C., and the layer of cells was removed and re-suspended at 1×10^6 cells/ml in A-MEM medium supplemented with foetal bovine serum (Moregate BioTech Ltd, Hamilton, New Zealand) (10% v/v), streptomycin sulphate (100 μg/ml) and penicillin-G (100 units/ml) (Sigma, St Louis, Mo., USA). Cells were added to a 24-well plate (Nunc, Kamstrup, Roskilde, Denmark) with LPS (Escherichia coli serotype 055:B5; Sigma, St. Louis, Mo., USA) plus thalidomide or CG at 0.04, 0.2, 1, 5, 25 & 100 μg/ml; or PG or PiG at 1, 5 & 25 μg/ml in a final volume of 1 ml. Wells containing cells only and cells plus LPS only were included as controls. After 12 hours of incubation, supernatants were removed and assayed immediately for TNF as described in section 4.
as §1

ECV304 cells [3] = assay: Inhibition of tube formation of ECV304 cells in Matrigel; assay type: cell-based, human
Description: Each well in a 24-well plate was coated with 300 μl of Matrigel (Becton Dickinson, San Jose, Calif., USA) which was allowed to solidified at 37° C. for 1 h. […] After 15-18 h of incubation at 37° C. at 5% CO2, the culture supernatant was aspirated. The cells were fixed and stained using Diff-Quick staining kit (Dade AG, Dudingen, Switzerland) according to the manufacturer's instructions. After removal of the staining solution the stained cells in each well were photographed along with a measuring ruler placed at the bottom edge of the photographing field (Olympus Camedia C-5050 professional digital camera, Olympus Optical, Tokyo, Japan). The total length of the tubes formed in the photographs was measured and divided by the area of the field (mm/mm^2).

ECV304 cells [4] = assay: MTT cytotoxicity assay; assay type: cell-based, human; conditions: 18 h, 2-250/g/ml, vs untreated or DMSO-treated cultures
Description: The 3-(4,5-dimethylthiazol-2-yl)-2,5-diphenyl tetrazolium bromide (MTT) assay, which measures mitochondrial metabolic activity, was used to determine cell viability (Mosmann, 1983). Cells (4×10^3/well) were cultured with various concentrations of thalidomide, CG, PG and PiG in a final volume of 100 μl M199 medium (Gibco, Grand Island, N.Y., USA) supplemented with 10% foetal bovine serum ([…] streptomycin sulphate and 100 units/ml penicillin-G (Sigma, St Louis, Calif., USA) in flat-bottomed 96-well plates at 37° C. at 5% CO2 for 18 h. At the end of the incubation period, 10 μl of MTT (Sigma, St. Louis, Mo., 5 mg/ml in PBS) was added to each well, and the cells were further incubated for 2 h. The supernatants were then removed and the formazan crystals in the cells were dissolved by the addition of 100 μl of DMSO per well, and the absorbance at 590 nm was read using a plate reader. Each concentration of drug was tested in triplicate wells, and the mean ±standard error of the mean (SEM) was calculated.

Colon 38 tumours = assay: Tumour growth delay, Colon 38 tumours in mice, combination with DMXAA; assay type: in vivo; conditions: for tumour volumes at 21 days after treatment compared with DMXAA alone: FIG. 2; for inhibition of tumour growth compared with DMXAA alone: 100 mg/kg i.p. co-administered with DMXAA 25 mg/kg, FIG. 1A
Description: Mice (C57B1/6 bred at the Animal Resources Unit, University of Auckland, New Zealand) were implanted with Colon 38 tumours, obtained originally from the Mason Research Institute (Auckland, New Zewaland) by transferring 1 mm^3 pieces of the tumour into a subcutaneous opening in the left flank of anaesthetized mice. The mice with tumours were used for growth delay experiments when tumours had reached approximately 3-5 mm in diameter. Mice were divided into 10 groups, an untreated control group, a group treated intraperitoneally (i.p.) with DMXAA (5,6-dimethylxanthenone-4-acetic acid, synthesized at the Auckland Cancer Society Research Centre—ACSRC (Auckland, New Zealand) at 25 mg/kg only, and 8 groups treated with DMXAA together with the hydrolytic thalidomide metabolites PG, PiG, CG also synthesized at the ACSRC as previously described (Lu et al, 2003), or thalidomide at 100 mg/kg, or together with CG or thalidomide at 20 mg/kg or 4 mg/kg. DMXAA was dissolved in saline at 2.5 mg/ml and injected i.p. into mice in a volume of 10 μl/g body weight. Thalidomide, PG, PiG and CG were dissolved in dimethylsulphoxide at 40, 8 or 1.6 mg/ml (for dosages of 100, 20, 4 mg/kg respectively) and injected i.p. in a volume of 2.5 μl/g body weight. Tumours were measured 2-3 times weekly after treatment and tumour volumes were calculated as 0.52×a^2×b, where a and b are the minor and major axes of the tumour. The arithmetic means and standard errors were calculated for each point, counting cured animals as having zero tumour volume, and expressed as fractions of the pre-treatment volume. Growth delay was determined as the difference in the number of days required for the tumour to reach four times the pre-treatment volume.

[5] = 100 mg/kg co-administered with DMXAA 25 mg/kg, FIG. 3A
[6] = 100 mg/kg co-administered with DMXAA 25 mg/kg, FIG. 3B
[7] = all concentrations tested, FIG. 6
[8] = 100 mg/kg co-administered with DMXAA 25 mg/kg

SMILES	increase in serum TNF activity above control untreated mice (TNF [1]; DMXAA alone 25 mg/kg, FIG. 3A) [fold]	increase in tumour TNF activity above control untreated mice (TNF [1]; DMXAA alone 25 mg/kg, FIG. 3B) [fold]	effect on LPS-induced TNF production (TNF [2])	effect on DMXAA-induced serum TNF level (TNF [1]; [5])	effect on DMXAA-induced tumour TNF level (TNF [1]; [6])	inhibition of tube formation (ECV304 cells [3]; [7])	toxicity (cell viability, MTT) (ECV304 cells [4])	tumour volumes at 21 days after treatment compared with DMXAA alone (Colon 38 tumours; [8])	inhibition of tumour growth compared with DMXAA alone (Colon 38 tumours)	effect on DMXAA-induced serum TNF level (TNF [1]; 20 mg/kg co-administered with DMXAA 25 mg/kg, FIG. 3A)	effect on DMXAA-induced tumour TNF level (TNF [1]; 20 mg/kg co-administered with DMXAA 25 mg/kg, FIG. 3B)	inhibition of tube formation (ECV304 cells [3]; 250 μg/ml, FIGS. 6 & 7)	inhibition at 2 µg/mL (ECV304 cells [3]; Homo sapiens, ECV-304, lowest concentration tested, 2 μg/ml, FIG. 7) [%]	potentiation of DMXAA-induced anti-tumour effects (Colon 38 tumours; 4 mg/kg co-administered with DMXAA 25 mg/kg, FIG. 1C)	tumour volumes at 21 days after treatment compared with DMXAA alone (Colon 38 tumours; 4 mg/kg co-administered with DMXAA 25 mg/kg)
Cc1ccc2c(=O)c3cccc(CC(=O)O)c3oc2c1C [DMXAA, 5,6-dimethylxanthenone-4-acetic acid, reference compound]	20	50	–	–	–	–	–	–	–	–	–	–	–	–	–
NC(=O)CCC(C(=O)O)N1C(=O)c2ccccc2C1=O (stereo not shown) [PG, 5-Amino-2-(1,3-dioxo-1,3-dihydro-2H-isoindol-2-yl)-5-oxopentanoic acid]	–	–	no significant effect	had no effect	had no effect	did not show any inhibition	No toxicity was observed	no significant difference in tumour volumes	did not inhibit tumour growth above that of DMXAA alone	–	–	–	–	–	–
NC(=O)C(CCC(=O)O)N1C(=O)c2ccccc2C1=O (stereo not shown) [PiG, 5-Amino-4-(1,3-dioxo-1,3-dihydro-2H-isoindol-2-yl)-5-oxopentanoic acid]	–	–	no significant effect	had no effect	had no effect	did not show any inhibition	No toxicity was observed	no significant difference in tumour volumes	did not inhibit tumour growth above that of DMXAA alone	–	–	–	–	–	–
O=C1CCC(N2C(=O)c3ccccc3C2=O)C(=O)N1 (stereo not drawn) [thalidomide, α-phthalimidoglutarimide]	–	–	significantly decreased LPS-induced TNF levels in a dose-dependent manner	reduced DMXAA-induced TNF levels in serum	no significant effect	–	No toxicity was observed	significantly smaller tumour volumes than those treated by DMXAA alone	greater inhibition of tumour growth than that of DMXAA alone	reduced DMXAA-induced TNF levels in serum	no significant effect	Near complete inhibition	38 to 41	neither CG nor thalidomide showed potentiation	no significant difference
